Assay results taken from PubChem BioAssay (NCI).
Values joined by “and” are separate entries in the source; they are usually repeats but may differ in a detail not shown here. Equal entries are not always repeated.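 Each compound was tested at five concentrations against cells in 96-well plates for 48 hours. GI50 = concentration required for 50% inhibition of growth. TGI marks complete inhibition of growth.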

Legend:
Test in all cases: inhibition of tumour cell growth, NCI panel, 48 h
SF-268 CNS = test system: SF-268 CNS
ACHN renal = test system: ACHN renal
RPMI-8226 leukemia = test system: RPMI-8226 leukemia
SK-OV-3 ovarian = test system: SK-OV-3 ovarian
SW-620 colon = test system: SW-620 colon
U251 CNS = test system: U251 CNS
OVCAR-8 ovarian = test system: OVCAR-8 ovarian
OVCAR-5 ovarian = test system: OVCAR-5 ovarian
SK-MEL-5 melanoma = test system: SK-MEL-5 melanoma
T-47D breast = test system: T-47D breast

SMILES	GI50 (SF-268 CNS) [µM]	TGI (SF-268 CNS)	GI50 (ACHN renal) [µM]	TGI (ACHN renal)	GI50 (RPMI-8226 leukemia) [µM]	TGI (RPMI-8226 leukemia)	GI50 (SK-OV-3 ovarian) [µM]	TGI (SK-OV-3 ovarian)	GI50 (SW-620 colon) [µM]	TGI (SW-620 colon)	GI50 (U251 CNS) [µM]	TGI (U251 CNS)	GI50 (OVCAR-8 ovarian) [µM]	TGI (OVCAR-8 ovarian)	GI50 (OVCAR-5 ovarian) [µM]	TGI (OVCAR-5 ovarian)	GI50 (SK-MEL-5 melanoma) [µM]	TGI (SK-MEL-5 melanoma)	GI50 (T-47D breast) [µM]	TGI (T-47D breast) [µM]
O=C1c2c(O)cccc2C(C(=O)CCCCCC(=O)C2c3cccc(O)c3C(=O)c3c(O)cccc32)c2cccc(O)c21	5.02	4.52 µM and 11.9 µM	9.48	5.71 µM and 16.6 µM	1.55	2.1 µM and 4.41 µM	6.3	4.15 µM and 13.8 µM	5.44	25 µM and 14.5 µM	2.5	3.11 µM and 8.21 µM	6.8	8.5 µM and 15.6 µM	6.96	7.43 µM and 14.4 µM	7.96	–	–	–
NC(Cc1ccccc1)C(=O)OCN1C(=O)C2C3C=CC(C2C1=O)C1C2C(=O)N(COC(=O)C(N)Cc4ccccc4)C(=O)C2C31 (stereo unspecified)	–	48.3 µM and 41.6 µM	–	59.2 µM and 71.3 µM	–	56.4 µM and 44.7 µM	–	> 100 µM and 78.9 µM	–	51.3 µM and 52.8 µM	–	39.1 µM and 34.6 µM	–	54.1 µM and 43.7 µM	–	> 100 µM	–	34.4 µM and 32.9 µM	–	–
O=C(NCCCCCCCCCCCCNC(=O)c1cnc2ccccc2n1)c1cnc2ccccc2n1	–	> 100 µM	–	> 100 µM	–	> 100 µM	–	55.5 µM	–	> 100 µM	–	> 100 µM	–	> 100 µM	–	–	–	> 100 µM	–	–
CC(Oc1cc2oc(=O)cc(-c3ccccc3)c2cc1Cl)C(=O)O (stereo unspecified)	–	> 100 µM	–	> 100 µM	–	–	–	> 100 µM	–	> 100 µM	–	> 100 µM	–	> 100 µM	–	–	–	> 100 µM	–	–
c1ccc2c(c1)[nH]c1cnc3c4ncccc4[nH]c3c12	–	> 100 µM	–	> 100 µM	–	> 100 µM	–	> 100 µM	–	> 100 µM	–	> 100 µM	–	> 100 µM	–	> 100 µM	–	> 100 µM	–	–
O=C1OC(CC(=O)c2ccc(F)cc2)C(Cl)=C1Cl (stereo unspecified)	–	–	–	> 100 µM	–	> 100 µM	–	> 100 µM	–	46.2 µM	–	34.3 µM	–	40.2 µM	–	44.9 µM	–	60.4 µM	–	–
NCCOc1ccc(/C(=C(/Cl)c2ccccc2)c2ccccc2)cc1	–	29.8 µM	–	27.2 µM	–	11 µM	–	31.7 µM	–	16.1 µM	–	23.7 µM	–	29.6 µM	–	30.8 µM	–	22.3 µM	–	–
CC(C)C[C@H](CC(=O)O)C(=O)N[C@@H](Cc1c[nH]c2ccccc12)C(=O)N[C@@H](C)c1ccccc1	> 25	> 25 µM	> 25	> 25 µM	–	–	> 25	> 25 µM	> 25	> 25 µM	> 25	> 25 µM	> 25	> 25 µM	> 25	> 25 µM	> 25	> 25 µM	> 25	> 25
COC(=O)C(=O)C(CC(=O)Nc1cc(Cl)ccc1Cl)C(=O)OC (stereo unspecified)	–	> 100 µM	–	> 100 µM	–	> 100 µM	–	> 100 µM	–	> 100 µM	–	> 100 µM	–	> 100 µM	–	> 100 µM	–	> 100 µM	–	–
CCOC(=O)c1oc2c(OC)ccc3c2c1CCC3	–	> 100 µM	–	> 100 µM	–	> 100 µM	–	> 100 µM	–	> 100 µM	–	> 100 µM	–	> 100 µM	–	> 100 µM	–	> 100 µM	–	–
O=C(Nc1cccc(C(F)(F)F)c1)C(=O)C(C(=O)c1ccc(Cl)c(Cl)c1)C1OC(=O)c2ccccc21 (stereo unspecified)	–	> 100 µM	–	> 100 µM	–	> 100 µM	–	> 100 µM	–	> 100 µM	–	> 100 µM	–	> 100 µM	–	> 100 µM	–	–	–	–
C/C(=N\Nc1ccccc1)c1sc(-c2nc(C)c(/C(C)=N/Nc3ccccc3)s2)nc1C	–	> 64.6 µM	–	> 32 µM	–	> 100 µM	–	> 100 µM	–	> 35.2 µM	–	> 100 µM	–	> 100 µM	–	> 100 µM	–	> 47.6 µM	–	–
Nc1nc(N)c2c(n1)NC(c1sc(Cl)nc1Cl)CC(c1ccccc1)=N2 (stereo unspecified)	5.68	22.5 µM	4.56	16.8 µM	4.99	31.5 µM	3.6	15.3 µM	3.42	13.3 µM	–	–	4.8	22.2 µM	10.2	21.9 µM	3.69	13.9 µM	3.35	22.1
CCCCCCCCCCC(=O)CCCCCCC(=O)O	–	> 100 µM	–	56.6 µM	–	32.3 µM	–	> 100 µM	–	55.7 µM	–	86.1 µM	–	33.7 µM	–	51.3 µM	–	29.3 µM	–	–
COc1cc(/C=C/C(=O)c2cccc3ccccc23)cc(OC)c1OC	–	18.2 µM	–	24.4 µM	–	–	–	28.5 µM	–	7.32 µM	–	18.8 µM	–	4.58 µM	–	27.5 µM	–	23.8 µM	–	–
CCOC(=O)/C(=C/CC/C(C)=C/CC/C(C)=C/CCc1ccoc1)CC(=O)N1CCCCC1	8.91	38.3 µM	2.93	10.3 µM	1.87	5.47 µM	8.27	36.1 µM	4.8	19.2 µM	–	–	3.97	40.2 µM	3.1	14.9 µM	1.66	3.09 µM	2.37	8.65
C/C(=C1/N=C(c2cc([N+](=O)[O-])ccc2Cl)N(c2ccc(Br)cc2)C1=O)c1ccc(N(CCC#N)CCC#N)cc1C	–	> 100 µM	–	> 100 µM	–	77.2 µM	–	> 100 µM	–	25.5 µM	–	–	–	> 100 µM	–	> 100 µM	–	> 100 µM	–	–
Cc1ccccc1NC(=O)CC1C(=O)Nc2ccccc2S1=O (stereo unspecified)	–	> 100 µM	–	> 100 µM	–	> 100 µM	–	–	–	> 100 µM	–	> 100 µM	–	> 100 µM	–	> 100 µM	–	> 100 µM	–	–
CC1CC(C[N+](=O)[O-])CC2(C1)OCCO2 (stereo unspecified)	–	> 100 µM	–	> 100 µM	–	> 100 µM	–	> 100 µM	–	> 100 µM	–	> 100 µM	–	> 100 µM	–	–	–	> 100 µM	–	–
CC1=C(C(=O)Nc2cccc(Cl)c2)C(c2ccccc2O)C(C(=O)Nc2cccc(Cl)c2)=C(C)N1	–	37.9 µM	–	53.8 µM	–	46 µM	–	54.4 µM	–	35.8 µM	–	41.4 µM	–	60.1 µM	–	38.6 µM	–	31.5 µM	–	–
